According to US11707449B2, “Methods and formulations for treatment of spinobulbar muscular atrophy” (ST. JUDE CHILDREN'S RESEARCH HOSPITAL, INC., priority 2017, dated 2023):

Columns and labels:
[1] = molecular target: T1, AR BF3 binding pocket and Bag-1L (Homo sapiens, UniProt P10275); settings: cited from earlier work
T1 sequence (P10275 1-920): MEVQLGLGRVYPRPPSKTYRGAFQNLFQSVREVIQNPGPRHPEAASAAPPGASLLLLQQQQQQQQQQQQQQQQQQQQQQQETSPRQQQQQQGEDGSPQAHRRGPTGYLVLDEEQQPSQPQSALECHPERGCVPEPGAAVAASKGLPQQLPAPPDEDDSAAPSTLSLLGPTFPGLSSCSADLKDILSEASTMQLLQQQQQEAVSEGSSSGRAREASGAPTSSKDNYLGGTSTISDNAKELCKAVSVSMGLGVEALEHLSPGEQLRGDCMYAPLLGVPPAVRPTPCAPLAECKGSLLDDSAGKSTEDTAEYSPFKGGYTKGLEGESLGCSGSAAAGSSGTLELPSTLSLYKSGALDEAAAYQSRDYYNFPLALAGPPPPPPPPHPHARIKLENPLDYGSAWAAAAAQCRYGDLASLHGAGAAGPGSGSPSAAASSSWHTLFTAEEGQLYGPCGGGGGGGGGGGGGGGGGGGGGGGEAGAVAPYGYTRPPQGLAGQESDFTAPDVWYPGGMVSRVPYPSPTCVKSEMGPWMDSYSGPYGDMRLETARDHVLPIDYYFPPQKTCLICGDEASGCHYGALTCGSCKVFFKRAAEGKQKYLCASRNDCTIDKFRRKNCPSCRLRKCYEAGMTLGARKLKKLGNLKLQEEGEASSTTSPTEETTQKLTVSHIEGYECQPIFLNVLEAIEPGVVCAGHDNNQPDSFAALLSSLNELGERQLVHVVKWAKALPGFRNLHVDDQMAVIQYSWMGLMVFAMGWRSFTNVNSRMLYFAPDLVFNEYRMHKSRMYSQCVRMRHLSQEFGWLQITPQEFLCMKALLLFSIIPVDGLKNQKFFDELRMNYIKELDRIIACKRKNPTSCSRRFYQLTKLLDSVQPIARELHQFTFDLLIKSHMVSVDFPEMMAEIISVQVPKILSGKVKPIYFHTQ

[2] = tested on: flies expressing human AR52Q in pan-neuronal tissues (ELAV>UAS-AR52Q); experiment: Viability of SBMA flies (rescue of DHT-induced lethality); format: in vivo, Drosophila; settings: flies reared on food containing 1 mM DHT and compound (TA, MEPB 0 to 400 μM)
From the text: UAS-AR52Q, UAS-AR52Q-K720A, and UAS-AR66Q-E897K fly stocks were generated as previously described^8. Fly stocks were crossed to various GAL4 driver lines (ELAV-GAL4 for pan-neuronal, OK371-GAL4 for motor neuron, GMR-GAL4 for eye) to induce expression of the AR transgene in a tissue-specific manner in fly vials containing fly food with either vehicle (1% ethanol +/−0.1% DMSO) or drugs. Upon the presence of progeny, parental flies were removed, and F1 flies were scored for phenotypic analysis. Viability was determined as previously described^40. Briefly, the population frequency of adult F1 SBMA flies (ELAV>UAS-AR52Q or OK371>UAS-AR52Q) and control flies (GAL4-ELAV; CyO-GFP) were determined by the presence or absence of the CyO phenotypic marker. At least three independent biological replicates (F0 crosses) were performed with new drug/food preparations for each treatment group, and a total of at least 50 flies were scored for each treatment group. To determine locomotor activity of SBMA flies, adult F1 flies (OK371>UAS-AR52Q) reared on food containing vehicle or drug were allowed to walk for 90 seconds in one well of a 12-well tissue culture plate while video was recorded using a Leica M205C stereomicroscope and Leica DFC320 digital camera. Videos were recorded for at least 15 flies per treatment group. Tracing of fly movement and analysis of displacement and velocity were performed using ImageJ software. Preparation and staining of larval neuromuscular junctions and ventral ganglions were performed as previously described^8.

Structure (SMILES) | BF3-Bag-1L binding [1] | SBMA fly viability [2]
Cc1cccc(C)c1OCCSc1nc2ccccc2[nH]1 [CPD49, 2-((2-(2,6-dimethylphenoxy)ethyl)thio)-1H-benzimidazole] | inhibited | 
CC(C)Cc1ccc(C(C)C(=O)O)cc1 (centres unmarked) [ibuprofen] |  | did not
